“Also recorded” adds a separate entry of the source. Like-named read-outs stand apart in the source and are kept apart here.
How the values were obtained:
[1] = target: T1, HIV-1 RT DNA polymerase (Human immunodeficiency virus type 1 group M subtype B, UniProt P04585); experiment: RT RNA-dependent DNA polymerase activity assay; format: biochemical; details: read-out: Inhibition of RT DNA polymerase activity (IC50)
[2] = target: T2, p15-EC RNH fragment (Human immunodeficiency virus type 1 group M subtype B, UniProt P04585, DELINS1094-1102[…]); experiment: RNH activity of p15-EC RNH domain fragment, rapid fluorescence assay; format: biochemical, HIV-1 / Escherichia coli chimera; details: for IC50: read-out: Inhibition of the p15-EC RNH fragment (IC50), 2 mM Mn2+
[3] = Aqueous solubility; format: physicochemical; details: aqueous solution
[4] = target: T1, HIV-1 RT DNA polymerase; details: read-out: Inhibition of RT DNA polymerase activity (IC50); ref [20]; cited from earlier work
[5] = target: T2, p15-EC RNH fragment; details: read-out: Inhibition of the p15-EC RNH fragment (IC50); ref [20]; cited from earlier work
[6] = target: p15-EC RNH domain fragment (Human immunodeficiency virus type 1 group M subtype B, UniProt P04585, DELINS1094-1102[…]); experiment: NMR 1H-15N HSQC chemical shift titration, dissociation constant; format: binding, HIV-1 / Escherichia coli chimera; details: read-out: Inhibitor dissociation constant, KD
[7] = test system: HIV-1; details: ref [21], [22]; cited from earlier work

O=C(O)c1ccc(-c2cccc(/C=N/NC(=O)c3ccc(O)c(O)c3)c2)cc1 [BHMP03]
IC50 [1]: > 50000 nM | Ratio of p15-EC RNH IC50 relative to BHMP07 ([2]; IC50 of BHMP03 versus BHMP07): more than 50 times | IC50 [2]: > 50000 nM | Aqueous solubility relative to DHBNH [3]: more soluble in aqueous solution than the naphthyl-based DHBNH

COc1ccc2ccccc2c1/C=N/NC(=O)c1ccc(O)c(O)c1 [DHBNH, dihydroxy benzoyl naphthyl hydrazone]
IC50 [4]: > 25 µM | IC50 [5]: 18.5 ± 3.4 µM

O=C(O)c1ccc(-c2cccc(/C=N/NC(=O)c3cc(O)c(O)c(O)c3)c2)cc1 [BHMP07]
IC50 [1]: 300 ± 200 nM | IC50 [2]: 800 ± 60 nM | Kd ([6]; residue A76 (502), + 20 mM Mg2+): 311 ± 41.5 µM | Kd ([6]; residue A76 (502), no Mg2+): 192 ± 28.9 µM | Kd ([6]; residue I79 (505), + 20 mM Mg2+): 372 ± 60.2 µM | Kd ([6]; residue I79 (505), no Mg2+): 212 ± 20.1 µM | Kd ([6]; residue I114 (526), + 20 mM Mg2+): 321 ± 26.2 µM | Kd ([6]; residue I114 (526), no Mg2+): 217 ± 38.4 µM | Kd ([6]; residue K93, + 20 mM Mg2+): 454 ± 151 µM | Kd ([6]; residue K93, no Mg2+): 194 ± 18.3 µM | Kd ([6]; residue Q74 (500), + 20 mM Mg2+): 246 ± 72.8 µM | Kd ([6]; residue V124 (536), no Mg2+): 242 ± 18.2 µM | Kd ([6]; residue Y75 (501), + 20 mM Mg2+): 262 ± 135 µM | Aqueous solubility relative to DHBNH [3]: higher aqueous solubility than DHBNH; also recorded: more soluble in aqueous solution than the naphthyl-based DHBNH | Solubility at the levels used in the NMR studies ([3]; inhibitor up to 0.8 mM, overnight incubation): not likely completely soluble in aqueous solution

CC(C)c1ccc(O)c(=O)c(O)c1 [β-thujaplicinol]
Antiviral activity [7]: neither of these compounds has antiviral activity
